The text below walks through data of publication PMC7116157 (Nature chemical biology, 2019).

Structures are written as SMILES.

The target of the assay is T1, Cleavage and Polyadenylation Specificity Factor 3 (CPSF3) (Homo sapiens, UniProt Q9UKF6).
T1 sequence (Q9UKF6 1-459): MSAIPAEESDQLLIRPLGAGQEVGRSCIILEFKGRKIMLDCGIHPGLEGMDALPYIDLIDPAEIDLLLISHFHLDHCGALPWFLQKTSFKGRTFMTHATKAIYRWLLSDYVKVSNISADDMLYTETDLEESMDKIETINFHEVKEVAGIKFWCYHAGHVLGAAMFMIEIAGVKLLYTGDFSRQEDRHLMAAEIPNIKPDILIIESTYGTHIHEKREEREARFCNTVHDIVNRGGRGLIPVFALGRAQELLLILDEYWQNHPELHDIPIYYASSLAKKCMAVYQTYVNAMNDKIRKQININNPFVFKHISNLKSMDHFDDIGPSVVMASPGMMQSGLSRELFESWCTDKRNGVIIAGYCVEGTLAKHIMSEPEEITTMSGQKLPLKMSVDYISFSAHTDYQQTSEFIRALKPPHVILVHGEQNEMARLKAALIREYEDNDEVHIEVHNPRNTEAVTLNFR
Nature of the assay: […] Å co-crystal structure. Format: binding.

The term Kd denotes the constant that tells how readily two partners part at equilibrium. Lower therefore signals tighter binding. On to `CN1CCN(CCOc2c(Cl)cc(C(=O)N[C@@H](Cc3ccccc3)C(=O)O)c(O)c2Cl)CC1` [compound 2], for which the affinity, expressed as Kd, was 370 nM.
